Among the data in PubChem BioAssay AID651689 (The Scripps Research Institute Molecular Screening Center, 2012) are EC50 values, retold here.

Active and inactive are the calls of the source. The rule behind the calls is not given here.

For orientation: EC50 means the concentration needed to bring the measured effect to its halfway point.

The assay deals with Mu-type opioid receptor (Homo sapiens) (UniProt P35372). In words: mu opioid receptor agonists, OPRM1-only line – cell-based, luminescence, dose response, counter-screen for OPRM1-OPRD1 heterodimer activator project, late-stage follow-up (AID 651689). Particulars: luminescence activation counterscreen. In general terms: The purpose of a counterscreen is to sort out artefacts and off-target activity.
Sequence of Mu-type opioid receptor (Homo sapiens) (P35372 whole entry, looked up): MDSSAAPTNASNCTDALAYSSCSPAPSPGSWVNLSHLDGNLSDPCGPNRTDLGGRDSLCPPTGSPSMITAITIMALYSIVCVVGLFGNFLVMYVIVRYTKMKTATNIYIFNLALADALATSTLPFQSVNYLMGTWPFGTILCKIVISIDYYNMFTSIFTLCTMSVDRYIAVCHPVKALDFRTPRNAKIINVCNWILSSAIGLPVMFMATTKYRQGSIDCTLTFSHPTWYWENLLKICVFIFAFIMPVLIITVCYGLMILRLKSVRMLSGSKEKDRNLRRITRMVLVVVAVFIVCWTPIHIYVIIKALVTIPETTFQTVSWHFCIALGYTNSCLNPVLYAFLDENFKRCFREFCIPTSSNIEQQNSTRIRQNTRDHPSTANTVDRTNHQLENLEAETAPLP
For `CCOC(=O)C1(CCCc2ccccc2)CCN(Cc2cnn(C)c2)CC1`, the EC50 is > 40 µM (inactive).

Turning to `CCOC(=O)C1(Cc2ccccc2)CCN(Cc2cccn2-c2nccs2)CC1`, the EC50 was > 40 µM (inactive).

On to `OCC1(CCc2ccccc2)CCN(Cc2cc(F)ccc2-n2cccn2)CC1`, for which the EC50 is > 40 µM (inactive).

Regarding `CCOC(=O)C1(CCc2ccccc2)CCN(Cc2cc(C)cc(C)c2)CC1`, the EC50 is > 40 µM (inactive).

`CCOC(=O)C1(CCOc2ccccc2)CCN(Cc2cccn2-c2cccnc2)CC1`: the EC50 entry was “inactive”.

In the case of `CCOC(=O)C1(CCc2ccccc2)CCN(Cc2ccccc2C)CC1`, the EC50 result is “inactive”.

Turning to `CCOC(=O)C1(CCOc2ccccc2)CCN(Cc2ccc(O)c(OC)c2)CC1`, the EC50 is > 40 µM (inactive).

With `CCOC(=O)C1(Cc2ccccc2)CCN(Cc2cccn2-c2cccnc2)CC1`, the EC50 is > 40 µM (inactive).

Turning to `CCOC(=O)C1(CC2CCCCO2)CCN(Cc2c(C)cc(C)cc2-n2cccn2)CC1` (stereo unspecified), the EC50 was 7.4 µM.

Turning to `CCOC(=O)C1(CCc2ccccc2)CCN(Cc2ccc(OC(C)C)c(C#N)c2)CC1`, the EC50 was > 40 µM (inactive).

For the compound `CCOC(=O)C1(CCc2ccccc2)CCN(Cc2ccc(NC(C)=O)cc2)CC1`, the EC50 result is “inactive”.
